Assay results as given in patent publication US20240285555A1, “COMPOSITIONS FOR THE TREATMENT OF COPPER DEFICIENCY AND METHODS OF USE” (priority 2018, published 2024).

What was measured:
coa6Δ cells [1] = assay: Oxygen consumption rate measurement; type: cell-based, Saccharomyces cerevisiae; conditions: 20 nM ES, YP galactose medium
Protocol: Oxygen Consumption Measurement. For measurements of respiration rates, cells were grown to late log phase in YPGal medium and then washed, counted, and resuspended in fresh YPGal medium at 10^8 cells/ml. The rate of oxygen consumption was then measured at 30° C. using the Oxytherm (Hansatech, Norfolk, UK). Cyanide-sensitive respiration was calculated after the addition of 1 mM KCN, and the cyanide-insensitive respiration was subtracted from the total respiration.

coa6Δ cells [2] = assay: Cellular and mitochondrial copper measurements by ICP-MS in yeast; type: cell-based, Saccharomyces cerevisiae; conditions: 20 nM ES
Protocol: FIGS. 2A, 2B, 2C, 2D and 2E illustrate elesclomol supplementation rescues CcO assembly defects by restoring mitochondrial copper levels of yeast S. cerevisiae coa6Δ cells. FIGS. 2A-2C illustrate bioenergetic parameters of wild type (WT), coa6Δ, and coa6Δ cells supplemented with 20 nM ES were cultured in YP galactose medium until early stationary growth phase. […] Error bars represent mean±SD (n=3, two-tailed unpaired Student's t-test *p<0.05, **p<0.005).
Cellular and Mitochondrial Copper Measurements. Cellular and mitochondrial copper levels were measured using the Perkin Elmer DRC II Inductively Coupled Plasma-Mass Spectrometer (ICP-MS). Intact yeast cells and isolated mitochondrial pellets were washed with 100 μM EDTA containing water, weighed, and digested with 40% nitric acid (TraceSELECT, Sigma) at 90° C. for 18 h. Samples were diluted in ultrapure metal-free water (TraceSELECT, Sigma) and analyzed by ICP-MS. Copper standard solutions were prepared by appropriate dilutions of commercially available mixed metal standards (BDH Aristar Plus). Copper concentrations in mammalian cells were also measured by ICP-MS.
ES scavenges copper from the culture medium, enters the cell as an ES-copper complex, and selectively accumulates in mitochondria where it dissociates from copper. […]

[3] = tested on: Ctr1^−/− H9c2 cardiomyocytes; assay: Intracellular copper levels in Ctr1 knockout H9c2 cardiomyocytes (ICP-MS); type: cell-based, rat; conditions: 5 nM ES
Protocol: FIGS. 4A and 4B illustrates the effects of ES supplementation in increasing copper levels (A) and cytochrome c oxidase subunit, COX1, and superoxide dismutase, SOD1 levels (B) in Ctrl1^−/− H9c2 rat cardiomyocytes. ATP5A is a subunit of mitochondrial ATP synthase and was used as a loading control for the Western blotting experiment.
Mammalian Cell Culture. The human control MCH46 and SCO2 patient fibroblasts as well as the rat H9c2 control and Ctr1^−/− cardiomyocytes were cultured in high glucose Dulbecco's modified Eagle's medium (DMEM) supplemented with 10% fetal bovine serum (Sigma) and 1 mM sodium pyruvate (Life Technologies). […] Whole cell protein was extracted in lysis buffer (BP-115, Boston BioProducts) supplemented with protease inhibitor cocktail (Roche Diagnostics) and the protein concentrations were determined by BCA assay (Thermo Scientific). […]
Cellular and Mitochondrial Copper Measurements. Cellular and mitochondrial copper levels were measured using the Perkin Elmer DRC II Inductively Coupled Plasma-Mass Spectrometer (ICP-MS). […] Samples were diluted in ultrapure metal-free water (TraceSELECT, Sigma) and analyzed by ICP-MS. […] Copper concentrations in mammalian cells were also measured by ICP-MS. […]

control MEFs = assay: COX1 levels in control mouse embryonic fibroblasts (toxicity); type: cell-based; conditions: higher doses of ES
Protocol: Mammalian Cell Culture. The human control MCH46 and SCO2 patient fibroblasts as well as the rat H9c2 control and Ctr1^−/− cardiomyocytes were cultured in high glucose Dulbecco's modified Eagle's medium (DMEM) supplemented with 10% fetal bovine serum (Sigma) and 1 mM sodium pyruvate (Life Technologies). The mouse embryonic fibroblasts were cultured in DMEM 10% FBS, 1 mM sodium pyruvate, 1× minimum essential medium non-essential amino acids (MEM NEAA; Life Technologies 11140), 50 μg/mL uridine, and 1× Pen Strep Glutamine (Life Technologies 10378). All cell lines were cultured under 5% CO2 at 37° C. and were treated with indicated concentrations of ES for 3-6 days before harvesting. Whole cell protein was extracted in lysis buffer (BP-115, Boston BioProducts) supplemented with protease inhibitor cocktail (Roche Diagnostics) and the protein concentrations were determined by BCA assay (Thermo Scientific).
Immunoblotting and In-gel Activities. Sodium dodecyl sulfate polyacrylamide gel electrophoresis (SDS-PAGE) and Blue Native PAGE (BN-PAGE) were performed to separate denatured and native protein complexes, respectively. For SDS-PAGE, mitochondrial lysate ([…]) was separated on NuPAGE 4-12% Bis-Tris gels (Life Technologies, Carlsbad, CA). For BN-PAGE, yeast mitochondria were solubilized in buffer containing 1% digitonin (Life Technologies) by incubating for 15 min at 4° C. […]

CN(NC(=O)CC(=O)NN(C)C(=S)c1ccccc1)C(=S)c1ccccc1 [ES, elesclomol]
oxygen consumption rate (coa6Δ cells [1]): restored the oxygen consumption rate of coa6Δ cells to that of wild type cells | mitochondrial copper levels (coa6Δ cells [2]): almost complete rescue | total cellular copper levels (coa6Δ cells [2]): moderately increased | intracellular copper levels [3]: restored | ES toxicity reflected in COX1 levels (control MEFs): reduced COX1 levels
